Assay results taken from patent publication US9616062B2, “Cyclin dependent kinase inhibitors and methods of use” (priority 2009, dated 2017).

Legend:
[1] = system: renal cell proliferation in female FVB wt mice; test: EdU incorporation into whole kidney of cisplatin-treated mice (flow cytometry); assay type: in vivo, mouse
Experimental: FIG. 6: CDK4/6 inhibition blocks EdU incorporation into whole kidney in mice treated with cisplatin. […] EdU ([…]) was given IP every 24 hours prior to sacrifice. Kidneys were collected and single cell isolates were prepared and stained for EdU incorporation. Proliferation was assessed by flow cytometry. Data represents % of EdU staining in untreated, cisplatin-treated and cisplatin/PD0332991 treated cells.
[…] Proliferation was assessed by using BrdU (1 mg IP injection) every 6 hours for 24 hours prior to sacrifice or […] (0.1 mg IP) every 24 hours for 3 days prior to sacrifice.
Kidneys were harvested from mice and single cells were isolated using a gentleMACS™ tissue dissociator (Miltinyi Biotec, Bergisch Gladbach, Germany). Briefly, kidneys were cut into small pieces and placed in 10 ml collagenase (1 mg/ml) in a gentleMACS™ C tube (Miltinyi Biotec, Bergisch Gladbach, Germany). Tissue was dissociated following the manufacturer's recommendations (Miltinyi Biotec, Bergisch Gladbach, Germany). Cells were then incubated for 5 minutes in ACK buffer to lyse red blood cells, filtered and pelleted. Cells were resuspended in 4% paraformaldehyde and stored overnight at 4° C. For quantification of EdU incorporation, the cells were fixed, permeabilized, and stained with an APC EdU Flow Kit according to the manufacturer's instruction (Invitrogen Corporation, Carlsbad, Calif., United States of America). Flow cytometric analysis was performed using a CyAn ADP (Dako, Glostrup, Denmark). For each sample, a minimum of 500,000 cells was analyzed and the data were analyzed using FlowJo software (Tree Star, Inc., Ashland, Oreg., United States of America).
The kidney is relatively quiescent until challenged by a renal insult. Therefore, to determine whether renal cell proliferation was dependent on CDK4/6 activity in vivo, renal cell proliferation was stimulated by treating female FVB wt mice with cisplatin, a known nephrotoxic chemotherapeutic agent. At time 0 hr, mice were started on chow delivering PD0332991 100 mg/kg per day or standard chow with no drug. […]

[2] = system: irradiated (6.5 Gy) wild type mice (FVB/n); test: Myelosuppression assay: complete blood counts after sub-lethal irradiation, with or without erythropoietin; assay type: in vivo, mouse; details: PD0332991 150 mg/kg oral gavage just prior to irradiation, EPO at 72, 96, 120 h post-irradiation, day 17
Experimental: FIG. 1: CDK4/6 inhibition potentiates the efficacy of erythropoietin-mediated recovery of the erythroid cell lineage following DNA damage. Cohorts (8 mice per cohort) of irradiated (6.5 Gy) wild type mice (FVB/n) are given placebo, erythropoietin (EPO), a CDK4/6 inhibitor (PD0332991), or a combination of CDK4/6 inhibitor and EPO (PD0332991+EPO). Serial blood draws are performed at day 17 after treatment and complete blood counts assessed to determine the number of red blood cells, various leukocytes subpopulations, and platelets. The effect of treatment on platelets is shown in the panel on the upper left, red blood cells (RBC) in the panel on the upper right, hemoglobin (Hb) in the panel on the lower left, and hematocrit (HCT) in the panel on the lower right. Error bars represent +/−SEM. […]
Baseline complete blood cell (CBC) anaylsis was performed on a subset of mice prior to drug administration. […] Blood was analyzed using a Hemavet CBC-Diff Veterinary Hematology System (Drew Scientific Inc., Dallas, Tex., United States of America). […]
Cohorts of FVB wild type mice were given placebo or CDK4/6 inhibitor (PD0332991, 150 mg/kg oral gavage) just prior to receiving a sub-lethal dose of irradiation (6.5 Gcy). […] Complete blood counts (CBCs) were assessed to determine the number of red blood cells, various leukocytes subpopulations and platelets.

CC(=O)c1c(C)c2cnc(Nc3ccc(N4CCNCC4)cn3)nc2n(C2CCCC2)c1=O [PD0332991, 6-acetyl-8-cyclopentyl-5-methyl-2-(5-piperazin-1-yl-pyridin-2-ylamino)-8H-pyrido-[2,3-d]-pyrimidin-7-one]
reduction in cell proliferation ([1]; cisplatin and PD0332991 vs cisplatin and vehicle control): 88%
cells labeled with EdU ([1]; kidney single cell suspension, 72 h, cisplatin 15 mg/kg IP, PD0332991 100 mg/kg per day in chow or no drug): approximately 2%
platelet counts (CBC) [2]: improved platelet counts
